“Also recorded” adds a separate entry of the source.
Test: Pharmacological function of triterpenes (earlier experiments and reports)
Details: inventors' experiments, no data given

CC1(C)CC[C@]2(C(=O)O)CC[C@]3(C)C(=CC[C@@H]4[C@@]5(C)CC[C@H](O)C(C)(C)[C@@H]5CC[C@]43C)[C@@H]2C1 [oleanolic acid, Oleanolic acid]
Pharmacological function of oleanolic acid from sugar beet: antibiosis to a tumor and hepatitis; also recorded: cariostatic (insoluble glucanynthesis inhibition)

Reference: patent US5314877A, “Water-soluble pentacyclic triterpene composition and method for producing the same” (Hokkaido Sugar Co., Ltd., priority 1990, dated 1994)
